Reference: ChEMBL document CHEMBL3994622, “Design and synthesis of new RAF kinase-inhibiting antiproliferative quinoline derivatives. Part 2: Diarylurea derivatives” (Eur J Med Chem, 2017)

What was measured:
SF-295 = assay: Growth inhibition of human SF295 cells incubated for 48 hrs by sulforhodamine B assay; format: functional; details: SF-295, 48 h
OVCAR-8 = assay: Growth inhibition of human OVCAR8 cells incubated for 48 hrs by sulforhodamine B assay; format: functional; details: OVCAR-8, 48 h
NCI/ADR-RES = assay: Growth inhibition of human NCI/ADR-RES cells incubated for 48 hrs by sulforhodamine B assay; format: functional
EKVX = assay: Growth inhibition of human EKVX cells incubated for 48 hrs by sulforhodamine B assay; format: functional
SF-268 = assay: Growth inhibition of human SF268 cells incubated for 48 hrs by sulforhodamine B assay; format: functional; details: SF-268, 48 h
[1] = molecular target: RAF proto-oncogene serine/threonine-protein kinase (Homo sapiens, UniProt P04049); assay: Inhibition of human c-RAF at 10 uM using MEK1 as substrate in presence of [33P]ATP by Hotspot assay relative to control
RAF proto-oncogene serine/threonine-protein kinase, sequence (P04049 whole entry): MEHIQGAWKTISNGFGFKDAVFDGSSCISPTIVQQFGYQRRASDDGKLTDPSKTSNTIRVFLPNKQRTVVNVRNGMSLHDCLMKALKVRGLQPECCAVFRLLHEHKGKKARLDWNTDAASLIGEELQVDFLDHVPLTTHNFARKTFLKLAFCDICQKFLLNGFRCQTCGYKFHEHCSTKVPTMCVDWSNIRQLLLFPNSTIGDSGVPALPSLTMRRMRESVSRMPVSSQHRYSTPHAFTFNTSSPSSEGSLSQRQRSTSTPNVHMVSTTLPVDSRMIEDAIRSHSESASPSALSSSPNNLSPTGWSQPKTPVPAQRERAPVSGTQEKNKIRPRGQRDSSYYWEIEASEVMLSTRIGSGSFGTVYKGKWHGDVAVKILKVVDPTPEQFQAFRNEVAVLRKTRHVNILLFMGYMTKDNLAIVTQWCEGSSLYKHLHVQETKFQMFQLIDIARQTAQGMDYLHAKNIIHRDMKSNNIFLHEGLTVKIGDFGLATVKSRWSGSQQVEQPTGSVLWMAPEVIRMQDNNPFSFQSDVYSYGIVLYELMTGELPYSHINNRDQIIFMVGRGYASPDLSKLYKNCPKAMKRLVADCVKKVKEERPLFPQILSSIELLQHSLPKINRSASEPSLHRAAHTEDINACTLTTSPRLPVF

SK-OV-3 = assay: Growth inhibition of human SKOV3 cells incubated for 48 hrs by sulforhodamine B assay; format: functional; details: SK-OV-3, 48 h
KM12 = assay: Growth inhibition of human KM12 cells incubated for 48 hrs by sulforhodamine B assay; format: functional; details: KM12, 48 h
RPMI-8226 = assay: Growth inhibition of human RPMI8226 cells incubated for 48 hrs by sulforhodamine B assay; format: functional; details: RPMI-8226, 48 h
CAKI-1 = assay: Growth inhibition of human Caki1 cells incubated for 48 hrs by sulforhodamine B assay; format: functional; details: CAKI-1, 48 h
SN12C = assay: Growth inhibition of human SN12C cells incubated for 48 hrs by sulforhodamine B assay; format: functional
U-251 = assay: Growth inhibition of human U251 cells incubated for 48 hrs by sulforhodamine B assay; format: functional; details: U-251, 48 h
MCF7 = assay: Growth inhibition of human MCF7 cells incubated for 48 hrs by sulforhodamine B assay; format: functional; details: MCF7, 48 h
BT-549 = assay: Growth inhibition of human BT549 cells incubated for 48 hrs by sulforhodamine B assay; format: functional; details: BT-549, 48 h
HOP-92 = assay: Growth inhibition of human HOP92 cells incubated for 48 hrs by sulforhodamine B assay; format: functional; details: HOP-92, 48 h
SF-539 = assay: Growth inhibition of human SF539 cells incubated for 48 hrs by sulforhodamine B assay; format: functional; details: SF-539, 48 h
MDA-MB-435 = assay: Growth inhibition of human MDA-MB-435 cells incubated for 48 hrs by sulforhodamine B assay; format: functional; details: MDA-MB-435, 48 h
IGROV-1 = assay: Growth inhibition of human IGROV1 cells incubated for 48 hrs by sulforhodamine B assay; format: functional; details: IGROV-1, 48 h
COLO 205 = assay: Growth inhibition of human COLO205 cells incubated for 48 hrs by sulforhodamine B assay; format: functional; details: COLO 205, 48 h
Malme-3M = assay: Growth inhibition of human MALME-3M cells incubated for 48 hrs by sulforhodamine B assay; format: functional
OVCAR-5 = assay: Growth inhibition of human OVCAR5 cells incubated for 48 hrs by sulforhodamine B assay; format: functional; details: OVCAR-5, 48 h
MOLT-4 = assay: Growth inhibition of human MOLT4 cells incubated for 48 hrs by sulforhodamine B assay; format: functional; details: MOLT-4, 48 h
TK-10 = assay: Growth inhibition of human TK10 cells incubated for 48 hrs by sulforhodamine B assay; format: functional; details: TK-10, 48 h
K562 = assay: Growth inhibition of human K562 cells incubated for 48 hrs by sulforhodamine B assay; format: functional; details: K562, 48 h
UACC-62 = assay: Growth inhibition of human UACC62 cells incubated for 48 hrs by sulforhodamine B assay; format: functional; details: UACC-62, 48 h
SR = assay: Growth inhibition of human SR cells incubated for 48 hrs by sulforhodamine B assay; format: functional
SNB-19 = assay: Growth inhibition of human SNB19 cells incubated for 48 hrs by sulforhodamine B assay; format: functional; details: SNB-19, 48 h
RXF 393 = assay: Growth inhibition of human RXF393 cells incubated for 48 hrs by sulforhodamine B assay; format: functional; details: RXF 393, 48 h
NCI-H460 = assay: Growth inhibition of human NCI-H460 cells incubated for 48 hrs by sulforhodamine B assay; format: functional; details: NCI-H460, 48 h
SNB-75 = assay: Growth inhibition of human SNB75 cells incubated for 48 hrs by sulforhodamine B assay; format: functional; details: SNB-75, 48 h
ACHN = assay: Growth inhibition of human ACHN cells incubated for 48 hrs by sulforhodamine B assay; format: functional
MDA-MB-231 = assay: Growth inhibition of human MDA-MB-231 cells incubated for 48 hrs by sulforhodamine B assay; format: functional; details: MDA-MB-231, 48 h
[2] = read-out: LC50 (the source's name)

COc1cc2cc(Oc3ccc(NC(=O)Nc4ccc(Cl)c(Cl)c4)cc3)c(C)nc2cc1OC
GI50 (SF-295): 1960 nM
TGI (SF-295): 6.08 µM
CC50 (SF-295; [2]): 67.7 µM
GI50 (OVCAR-8): 3.54 µM
TGI (OVCAR-8): 12.9 µM
CC50 (OVCAR-8; [2]): 36 µM
GI50 (NCI/ADR-RES): 2600 nM
TGI (NCI/ADR-RES): 16.9 µM
CC50 (NCI/ADR-RES; [2]): > 100 µM
GI50 (EKVX): 2360 nM
LC50 (concentration killing 50% of cells) (EKVX): > 100 µM
TGI (EKVX): 9.51 µM
GI50 (SF-268): 8.23 µM
LC50 (50% lethal concentration) (SF-268): > 100 µM
TGI (SF-268): > 100 µM
inhibition [1]: 97.8%
GI50 (SK-OV-3): 7.56 µM
TGI (SK-OV-3): 26.4 µM
CC50 (SK-OV-3; [2]): 84.8 µM
GI50 (KM12): 3.22 µM
TGI (KM12): 13.4 µM
CC50 (KM12; [2]): 74.7 µM
GI50 (RPMI-8226): 1620 nM
LC50 (lethal concentration, 50% cell kill) (RPMI-8226): > 100 µM
TGI (RPMI-8226): 5.73 µM
GI50 (CAKI-1): 2120 nM
TGI (CAKI-1): 6.65 µM
CC50 (CAKI-1; [2]): 49.5 µM
GI50 (SN12C): 3.39 µM
TGI (SN12C): 20.5 µM
CC50 (SN12C; [2]): > 100 µM
GI50 (U-251): 2190 nM
TGI (U-251): 7.26 µM
CC50 (U-251; [2]): 26.5 µM
GI50 (MCF7): 2890 nM
TGI (MCF7): 13.8 µM
CC50 (MCF7; [2]): > 100 µM
GI50 (BT-549): 2400 nM
TGI (BT-549): 11.7 µM
CC50 (BT-549; [2]): 51.6 µM
GI50 (HOP-92): 2040 nM
LC50 (HOP-92): 14.2 µM
TGI (HOP-92): 4.88 µM
GI50 (SF-539): 5.18 µM
TGI (SF-539): 22.3 µM
CC50 (SF-539; [2]): 88.8 µM
GI50 (MDA-MB-435): 3.09 µM
TGI (MDA-MB-435): 16.8 µM
CC50 (MDA-MB-435; [2]): > 100 µM
GI50 (IGROV-1): 5.61 µM
TGI (IGROV-1): 46.1 µM
CC50 (IGROV-1; [2]): > 100 µM
GI50 (COLO 205): 2750 nM
TGI (COLO 205): 6.5 µM
CC50 (COLO 205; [2]): 21.5 µM
GI50 (Malme-3M): 3.02 µM
TGI (Malme-3M): 7.72 µM
CC50 (Malme-3M; [2]): 26.7 µM
GI50 (OVCAR-5): 10.1 µM
TGI (OVCAR-5): 34.3 µM
CC50 (OVCAR-5; [2]): > 100 µM
GI50 (MOLT-4): 3.02 µM
LC50 (MOLT-4): > 100 µM
TGI (MOLT-4): 22.8 µM
GI50 (TK-10): 3.46 µM
TGI (TK-10): 9.18 µM
CC50 (TK-10; [2]): 43.3 µM
GI50 (K562): 3.32 µM
LC50 (concentration killing 50% of cells) (K562): > 100 µM
TGI (K562): > 100 µM
GI50 (UACC-62): 3.33 µM
TGI (UACC-62): 19.2 µM
CC50 (UACC-62; [2]): 71.2 µM
GI50 (SR): 3.1 µM
TGI (SR): 10.3 µM
CC50 (SR; [2]): > 100 µM
GI50 (SNB-19): 4.26 µM
TGI (SNB-19): 24 µM
CC50 (SNB-19; [2]): > 100 µM
GI50 (RXF 393): 4.28 µM
TGI (RXF 393): 16.7 µM
CC50 (RXF 393; [2]): 65.7 µM
GI50 (NCI-H460): 2460 nM
TGI (NCI-H460): 10.1 µM
CC50 (NCI-H460; [2]): 45.8 µM
GI50 (SNB-75): 2330 nM
TGI (SNB-75): 8.28 µM
CC50 (SNB-75; [2]): 66.1 µM
GI50 (ACHN): 3000 nM
TGI (ACHN): 12.1 µM
CC50 (ACHN; [2]): 69.1 µM
GI50 (MDA-MB-231): 2460 nM
TGI (MDA-MB-231): 12 µM
CC50 (MDA-MB-231; [2]): 34.6 µM
